Values joined by “and” are separate entries in the source; they are usually repeats but may differ in a detail not shown here. Equal values may be shown once.
Tested on: placental gene expression
Assay: Placental gene expression (Affymetrix Rat Genome Chip 230.2) after SSRI (fluoxetine) exposure throughout gestation
Assay type: in vivo
Settings: SSRI exposure during gestation
Protocol: Gene expression data from pregnant rats under different forms of dietary restriction was gathered. […] (N=8) • Group 2 (CR50): Rats Given 50% of their Normal Daily Intake of Food. (N=5) • Group 3 (CR70): Rats Given 70% of their Normal Daily Intake of Food. […] (N=6) Placentas from the rats of each Group were harvested on Day 21 of gestation. RNA was extracted and gene expression was measured based on hybridization of RNA to Affymetrix Rat Genome Chips™ (230.2) (Affymetrix, Santa Clara, Calif.).
In order to determine whether placental gene expression profiling can be used to identify other prenatal exposures such as toxicants and drugs, a group of rats with drug exposure was monitored as described above. […] As with control, CR50, CR70, and HF groups, placentas from the mothers were sampled after 21 days of gestation and gene expression monitored utilizing an Affymetrix Rat Genome Chip.

[1] = placenta, each SSRI column = one sample

Structure (SMILES): CNCCC(Oc1ccc(C(F)(F)F)cc1)c1ccccc1 (stereo not shown) [fluoxetine, Fluoxetine]
- Probeset 1391509_at expression: 8.436 and 8.44 and 8.929 and 8.687 and 8.508 and 8.574
- Probeset 1391678_at expression: 7.246 and 7.316 and 7.365 and 7.475 and 7.387 and 7.426
- Probeset 1391962_at expression: 3.906 and 3.859 and 3.835 and 3.838 and 3.857 and 3.918
- Probeset 1392950_at expression: 3.887 and 3.884 and 3.809 and 3.812 and 3.82 and 3.885
- Probeset 1393104_at expression: 5.976
- Probeset 1393428_at expression: 6.023 and 6.1025 and 6.34 and 6.137 and 6.165 and 5.935
- Probeset 1393438_at expression: 5.322 and 5.381 and 5.359 and 5.376 and 5.366 and 5.287
- Probeset 1393539_at expression: 5.342 and 5.53 and 5.247 and 5.255 and 5.363 and 5.602
- Probeset 1393939_at expression: 4.456 and 4.322 and 4.388 and 4.385 and 4.239 and 4.386
- Probeset 1393989_at expression: 7.171 and 6.991 and 7.091 and 6.963 and 7.057 and 6.799
- Probeset 1394343_s_at expression: 3.578 and 3.612 and 3.498 and 3.586 and 3.588 and 3.604
- Probeset 1394383_at expression: 6.226 and 6.542 and 6.277 and 5.892 and 6.155 and 6.124
- Probeset 1394790_at expression: 6.517 and 6.383 and 6.546 and 6.377 and 6.521 and 6.433
- Probeset 1394887_x_at expression: 4.369 and 4.298 and 4.253 and 4.258 and 4.269 and 4.251
- Probeset 1395316_at expression: 7.327 and 7.192 and 7.672 and 7.075 and 7.225 and 7.176
- Probeset 1396130_at expression: 3.997 and 4.12 and 3.89 and 3.815 and 3.974 and 3.921
- Probeset 1397268_at expression: 5.157 and 5.261 and 5.068 and 4.99 and 5.173 and 4.92
- Probeset 1397587_at expression: 7.542 and 7.104 and 7.072 and 7.17 and 7.225 and 6.496
- Probeset 1397676_at expression: 4.933 and 5.266 and 5.715 and 5.112 and 5.274 and 5.346
- Probeset 1397934_at expression: 8.299 and 8.221 and 8.122 and 8.187 (2×) and 8.222
- Probeset 1397956_at expression: 6.013 and 6.031 and 6.26 and 5.9 and 5.674 and 6.039
- Probeset 1398025_at expression: 7.379 and 7.277 and 7.364 and 7.102 and 7.172 and 7.095
- Probeset 1398136_at expression: 4.109 and 4.099 and 4.035 and 4.047 and 4.062 and 4.154
- Probeset 1398208_s_at expression: 6.851 and 6.897 and 7.112 and 6.972 and 6.892 and 7.056
- Probeset 1398486_at expression: 4.355 and 4.744 and 5.032 and 4.741 and 4.49 and 5.709
- Probeset 1398949_at expression: 8.606 and 8.576 and 8.664 and 8.941 and 8.595 and 8.818
- Probeset 1399108_at expression: 7.198 and 7.34 and 7.479 and 7.32 and 7.149 and 7.206
- Probeset 1368198_at expression value [1]: 5.473 and 5.314 and 5.48 and 5.486
- Probeset 1368824_at expression value [1]: 10.44 and 10.31 and 10.75 and 10.8577 and 10.39 and 10.8
- Probeset 1369775_at expression value [1]: 9.454 and 9.493 and 9.497 and 9.711 and 9.436 and 9.608
- Probeset 1370317_at expression value [1]: 8.582 and 8.538 and 9.288 and 9.274 and 9.399 and 9.017
- Probeset 1370918_a_at expression value [1]: 11.48 and 11.57 and 11.99 and 11.82 and 11.71 and 11.77
- Probeset 1371174_s_at expression value [1]: 5.805 and 5.865 and 5.868
- Probeset 1373572_at expression value [1]: 8.281 and 8.071 and 8.726 and 8.553 and 8.626 and 8.452
- Probeset 1373647_at expression value [1]: 8.537 and 8.662 and 9.067 and 8.963 and 8.812 and 8.988
- Probeset 1375178_at expression value [1]: 5.304 and 5.523 and 5.583 and 5.437 and 5.444 and 5.62
- Probeset 1376622_at expression value [1]: 8.516 and 8.814 and 8.398 and 8.068 and 8.494 and 8.379
- Probeset 1376661_at expression value [1]: 8.407 and 8.641 and 7.86 and 7.94 and 7.632 and 8.114
- Probeset 1377365_at expression value [1]: 5.846 and 5.083 and 5.532 and 6.127 and 5.643 and 5.687
- Probeset 1378200_at expression value [1]: 3.755 and 3.651 and 3.848 and 3.847 and 4.036 and 3.882
- Probeset 1378906_at expression value [1]: 3.9529 and 3.997 and 3.87 and 3.96 and 3.996 and 3.763
- Probeset 1379691_at expression value [1]: 5.812 and 5.91 and 6.656 and 6.738 and 5.925 and 6.573
- Probeset 1379822_at expression value [1]: 4.961 and 4.831 and 5.299 and 4.848 and 5.227 and 5.084
- Probeset 1380175_at expression value [1]: 4.934 and 4.975 and 4.85 and 4.93 and 4.966 and 4.859
- Probeset 1381456_at expression value [1]: 5.822 and 5.673 and 5.76 and 5.587 and 5.629 and 5.737
- Probeset 1381492_at expression value [1]: 3.536 and 3.464 and 3.556 and 3.687 and 3.747 and 3.65
- Probeset 1382156_at expression value [1]: 4.178 and 4.6 and 4.28 and 4.232 and 4.706 and 4.384
- Probeset 1382670_at expression value [1]: 8.21 and 8.049 and 7.137 and 7.314 and 7.643 and 7.446
- Probeset 1383054_at expression value [1]: 9.672 and 9.605 and 9.479 and 9.484 and 9.46 and 9.528
